The values that follow come from patent US9980943B2, “Methods of treating muscular dystrophy” (BOARD OF REGENTS OF THE NEVADA SYSTEM OF HIGHER EDUCATION, …, priority 2013, dated 2018).

Values joined by “and” are separate entries in the source; they are usually repeats but may differ in a detail not shown here. Equal values may be shown once.

Holding throughout (assay type): cell-based, mouse
The subject of assay [1] is α7 integrin (LacZ reporter in α7+/LacZ myotubes). Nature of the assay: Myotube α7 integrin FDG assay (Burkin assay in myotubes, 96-well). The note with it: for Burkin Assay in Myotubes, value relative to DMSO: SU9516 analogs, 96-well, N=3-6.
The test system of assay [2] is β-galactosidase in CMV-LacZ C2C12 myoblasts. Briefly: CMV-LacZ secondary screen in C2C12 myoblasts (β-Gal stabilizing assay). The note with it: for CMV-LACZ in Myoblasts (β-galactosidase activity relative to DMSO): CMV-LacZ C2C12 myoblasts; for CMV-LACZ in Myoblasts, value relative to DMSO: SU9516 analogs, C2C12 CMV-LacZ, N=2. A digest of the protocol:
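A secondary screen identifies compounds that stabilize β-gal independently of the native promoter, using CMV-LacZ C2C12 cells. Curves span 0.5–40 μM at six levels, in duplicate.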

Assay [3] has as its system α7 integrin (LacZ reporter in α7βgal+/− myoblasts). Briefly: Myoblast α7+/LacZ integrin FDG assay (Burkin assay in myoblasts, 96-well). The note with it: 96-well; for Burkin Assay in Myoblasts, signal relative to DMSO: α7+/LacZ myoblasts; for Burkin Assay in Myoblasts, value relative to DMSO: SU9516 analogs, N=3-6.
Assay [4] relates to β-galactosidase in CMV-LacZ C2C12 myotubes. Nature of the assay: CMV-LacZ secondary screen in C2C12 myotubes (β-Gal stabilizing assay). The note with it: for CMV-LACZ in Myotubes, signal relative to DMSO: C2C12 CMV-LacZ myotubes, fold relative to DMSO; for CMV-LACZ in Myotubes, value relative to DMSO: SU9516 analogs, C2C12 CMV-LacZ, N=2. A digest of the protocol:
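CMV-LacZ C2C12 line (clonal, FDG-screened); myoblasts/myotubes dosed 0.5–40 μM (0.5, 1, 5, 10, 20, 40 μM); n=2 per point; β-gal stabilization read-out.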

`CC1(C)Cc2c(cnn2-c2cccc(F)c2)C(NC(=O)CCc2cnccn2)C1` (centres unmarked) [MLS001125260-01]: the “Burkin Assay in Myotubes, α7 integrin LacZ reporter signal relative to DMSO” value in assay [1] (0.5 uM) is 1.285 and 1.002; in assay [1] (1 uM), 1.208 and 0.8663; in assay [1] (5 uM), 0.9677 and 1.022; in assay [1] (10 uM), 1.091 and 0.9402; in assay [1] (20 uM), 0.7634 and 0.9057; in assay [1] (40 uM), 0.7451 and 0.9086. For the same compound, the “CMV-LACZ in Myoblasts (β-galactosidase activity relative to DMSO)” value in assay [2] (0.5 uM) was 1.1581; in assay [2] (1 uM), 1.0584; in assay [2] (5 uM) it was 1.0114; in assay [2] (10 uM) it was 0.9131; in assay [2] (20 uM), 1.0563; in assay [2] (40 uM) it was 1.2270. Moreover, the “Burkin Assay in Myoblasts, signal relative to DMSO” value is 1.21 and 1.071 in assay [3] (0.5 uM); 1.11 and 1.021 in assay [3] (1 uM); 0.9838 and 0.9248 in assay [3] (5 uM); 0.9616 and 0.8893 in assay [3] (10 uM); 1.024 and 0.8738 in assay [3] (20 uM); 0.9057 and 0.8426 in assay [3] (40 uM). Further, the “CMV-LACZ in Myotubes, signal relative to DMSO” value was 1.0074 in assay [4] (0.5 uM); 1.0993 in assay [4] (1 uM); 0.9614 and 0.9645 in assay [4] (5 uM); 1.0994 and 1.065 in assay [4] (10 uM); 1.0000 and 1.0765 in assay [4] (20 uM); 0.9212 and 1.175 in assay [4] (40 uM).

With `O=c1[nH]c(CN2CCCCC2)nc2c1C1(CCCCC1)Cc1ccccc1-2` [MLS000028160-01], the “Burkin Assay in Myotubes, α7 integrin LacZ reporter signal relative to DMSO” value in assay [1] (0.5 uM) is reported as 1.085; in assay [1] (1 uM) it was 1.102; in assay [1] (5 uM), 0.9162; in assay [1] (10 uM), 0.9598; in assay [1] (20 uM) it was 0.9049; in assay [1] (40 uM), 0.8112. Besides, the “CMV-LACZ in Myoblasts (β-galactosidase activity relative to DMSO)” value was 1.0663 in assay [2] (0.5 uM); 0.9029 in assay [2] (1 uM); 0.9378 in assay [2] (5 uM); 1.2759 in assay [2] (10 uM); 0.8967 in assay [2] (20 uM); 0.8600 in assay [2] (40 uM). Moreover, the “Burkin Assay in Myoblasts, signal relative to DMSO” value in assay [3] (0.5 uM) is listed as 1.037; in assay [3] (1 uM) it was 0.9873; in assay [3] (5 uM), 0.9805; in assay [3] (10 uM) it was 0.8521; in assay [3] (20 uM), 1.107; in assay [3] (40 uM) it was 0.8535. Also, the “CMV-LACZ in Myotubes, signal relative to DMSO” value in assay [4] (0.5 uM) stood at 1.0524; in assay [4] (1 uM), 1.0362; in assay [4] (5 uM) it was 1.0348; in assay [4] (10 uM), 0.9249; in assay [4] (20 uM) it was 1.0471; in assay [4] (40 uM), 1.1976.

As for `O=C1C(c2c(O)[nH]c3ccccc23)=Nc2ccccc21` [NCGC00179302-02], the “Burkin Assay in Myotubes, value relative to DMSO” value in assay [1] (0.5 uM) is reported as 0.9349; in assay [1] (1 uM) it was 0.9377; in assay [1] (5 uM), 0.8181; in assay [1] (10 uM), 0.7913; in assay [1] (20 uM) it was 0.682; in assay [1] (40 uM) it was 0.6871. Moreover, the “CMV-LACZ in Myoblasts, value relative to DMSO” value in assay [2] (0.5 uM) stood at 1.1867; in assay [2] (5 uM), 2.4679; in assay [2] (10 uM) it was 1.6628; in assay [2] (20 uM), 1.0247; in assay [2] (40 uM) it was 1.2873. Besides, the “Burkin Assay in Myoblasts, value relative to DMSO” value is given as 1.061 in assay [3] (0.5 uM); 1.0859 in assay [3] (1 uM); 0.606 in assay [3] (5 uM); 0.7163 in assay [3] (10 uM); 0.843 in assay [3] (20 uM); 0.8067 in assay [3] (40 uM). The “CMV-LACZ in Myotubes, value relative to DMSO” value in assay [4] (0.5 uM) amounted to 0.9618; in assay [4] (1 uM), 0.9736; in assay [4] (5 uM), 1.1533; in assay [4] (10 uM) it was 0.9196; in assay [4] (20 uM), 1.0030; in assay [4] (40 uM), 1.1410.

With `CCOc1ccccc1Nc1cc2n(c(=O)n1)CCc1cc(OC)c(OC)cc1-2` [MLS001215294-01], the “Burkin Assay in Myotubes, α7 integrin LacZ reporter signal relative to DMSO” value is given as 1.047 in assay [1] (0.5 uM); 1.106 in assay [1] (1 uM); 0.8935 in assay [1] (5 uM); 0.8216 in assay [1] (10 uM); 0.8062 in assay [1] (20 uM); 0.8079 in assay [1] (40 uM). Besides, the “CMV-LACZ in Myoblasts (β-galactosidase activity relative to DMSO)” value in assay [2] (0.5 uM) came to 1.2983; in assay [2] (1 uM), 1.2817; in assay [2] (5 uM) it was 0.8138; in assay [2] (10 uM), 1.3412; in assay [2] (20 uM), 0.3302; in assay [2] (40 uM), 0.4116. Besides, the “Burkin Assay in Myoblasts, signal relative to DMSO” value is 0.9783 in assay [3] (0.5 uM); 1.003 in assay [3] (1 uM); 0.7641 in assay [3] (5 uM); 0.6141 in assay [3] (10 uM); 0.2025 in assay [3] (20 uM); 0.2046 in assay [3] (40 uM). Besides, the “CMV-LACZ in Myotubes, signal relative to DMSO” value in assay [4] (0.5 uM) came to 0.8838; in assay [4] (1 uM), 1.0800; in assay [4] (5 uM), 1.1438; in assay [4] (10 uM), 1.4324; in assay [4] (20 uM), 1.2800; in assay [4] (40 uM), 1.4470.
